Measured values as given in US12497365B2, “4-pyridinyl formamide compound or derivative thereof, preparation method therefor, herbicidal composition and use thereof” (Qingdao Kingagroot Chemical Compound Co., Ltd., priority 2019, dated 2025).

Experiments:
Assay in all cases: Weeding effect in post-emergence stage
Assay type in all cases: in vivo
Details in all cases: active ingredient 2000 g/ha, 3 weeks after application, fresh weight control rate
[1] = system: Abutilon theophrasti
How it was run: (§1)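 Greenhouse post-emergence test: 2-3 leaf plants sprayed at 125-2000 g/ha, then fresh weight control rate scored at 3 weeks.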

[2] = system: Amaranthus retroflexus L.
How it was run: as §1

[3] = system: Chenopodium album
How it was run: as §1

[4] = system: Descurainia sophia
How it was run: as §1

| Structure (SMILES) | Weeding effect, activity level (growth control rate), Abutilon theophrasti [1] | Weeding effect, activity level (growth control rate), Amaranthus retroflexus L. [2] | Weeding effect, activity level (growth control rate), Chenopodium album [3] | Weeding effect, activity level (growth control rate), Descurainia sophia [4] |
| --- | --- | --- | --- | --- |
| Cn1nnnc1NC(=O)c1ccnc(-c2ccc(C#N)cc2)c1F [Compound 1-2016] | 5 (Level 5: growth control rate is above 85%) | 5 (Level 5: growth control rate is above 85%) | 5 (Level 5: growth control rate is above 85%) | 5 (Level 5: growth control rate is above 85%) |
| COc1c(C(=O)Nc2nnnn2C)ccnc1-c1ccc(C#N)cc1 [Compound 1-2029] | 5 (Level 5: growth control rate is above 85%) | 5 (Level 5: growth control rate is above 85%) | 5 (Level 5: growth control rate is above 85%) | 5 (Level 5: growth control rate is above 85%) |
| CN(C)c1c(C(=O)Nc2nnnn2C)ccnc1-c1ccc(Cl)cc1 [Compound 1-2044] | 5 (Level 5: growth control rate is above 85%) | 5 (Level 5: growth control rate is above 85%) | 5 (Level 5: growth control rate is above 85%) | 5 (Level 5: growth control rate is above 85%) |
| CSc1c(C(=O)Nc2nnnn2C)ccnc1-c1ccc(C#N)cc1 [Compound 1-2052] | 5 (Level 5: growth control rate is above 85%) | 5 (Level 5: growth control rate is above 85%) | 5 (Level 5: growth control rate is above 85%) | 5 (Level 5: growth control rate is above 85%) |
| CSc1c(C(=O)Nc2nnnn2C)ccnc1-c1ccc(C(N)=O)cc1 [Compound 1-2053] | 5 (Level 5: growth control rate is above 85%) | 5 (Level 5: growth control rate is above 85%) | 5 (Level 5: growth control rate is above 85%) | 5 (Level 5: growth control rate is above 85%) |
| COc1nccc(C(=O)Nc2nnnn2C)c1Cl [Compound 1-2061] | 5 (Level 5: growth control rate is above 85%) | 5 (Level 5: growth control rate is above 85%) | 5 (Level 5: growth control rate is above 85%) | 5 (Level 5: growth control rate is above 85%) |
| Cn1nnnc1NC(=O)c1ccnc(OCC(F)(F)F)c1Cl [Compound 1-2062] | 5 (Level 5: growth control rate is above 85%) | 5 (Level 5: growth control rate is above 85%) | 5 (Level 5: growth control rate is above 85%) | 5 (Level 5: growth control rate is above 85%) |
| Cn1nnnc1NC(=O)c1ccnc(Oc2ccccc2)c1Cl [Compound 1-2063] | 5 (Level 5: growth control rate is above 85%) | 5 (Level 5: growth control rate is above 85%) | 5 (Level 5: growth control rate is above 85%) | 5 (Level 5: growth control rate is above 85%) |
| Cn1nnnc1NC(=O)c1ccnc(OCc2ccccc2)c1Cl [Compound 1-2064] | 5 (Level 5: growth control rate is above 85%) | 5 (Level 5: growth control rate is above 85%) | 5 (Level 5: growth control rate is above 85%) | 5 (Level 5: growth control rate is above 85%) |
